Structures are written as SMILES. “Also recorded” adds a separate entry of the source.

Experiment [1] relates to MDA-MB-231 cell-derived xenograft tumor. Put plainly: MDA-MB-231 xenograft in athymic nude mice. The format is in vivo. Here is the method: Further work in a preclinical animal model supports the notion of using S-equol to treat TNBC breast cancer. In immunocompromised mouse xenograft experiments, which used MDA-MB-231, a human TNBC breast cancer cell line, growth of tumors was suppressed by 60% with S-equol treatment compared to control. 5×10^6 MDA-MB-231 cells were injected orthotopically into mammary gland fat pads of 6 week-old female athymic nude mice (Harlan). When the tumor masses reached 50 to 80 mm^3 (about one week after the inoculation), the mice were given daily subcutaneous injections of S-equol (20 or 60 mg/kg per day) or PBS as a vehicle control. Tumor development was followed by caliper measurements along two orthogonal axes: length (L) and width (W) and volume (V) was estimated by the formula V=[L×(W^2)]/2. […] Representative tumor sections from vehicle control and S-equol-treated mice were tested for Ki-67 expression to assess cell proliferation, and for ERβ ([…]. Statistical significance in the experiments was assessed by two-tailed Student's t test. In all assays, p<0.05 was considered statistically significant. The results of these experiments are shown in FIGS. 16 and 20. See, Yuan et al. 2016 listed below, which is incorporated by reference herein for all purposes.

Another experiment concerns TNBC. Put plainly: Pilot biomarker clinical study of S-equol in TNBC (Example 12). The format is in vivo, human. Here is the method:
A pilot biomarker clinical study was performed in 20 subjects with documented TNBC to determine the effect of the ERβ agonist S-equol on Ki67 an indicator of tumor cell proliferation. Tumor cell proliferation was measured by immunohistological staining for Ki-67. See, FIG. 18 for the outline of the protocol. Ki-67 is encoded by the gene MKI67 gene and is required to maintain individual mitotic chromosomes dispersed in the cytoplasm following nuclear envelope disassembly. Measuring the fraction of Ki-67-positive cells in a tumor is known to be a reliable parameter for assessing cancer patient prognosis. Subjects with TNBC are known to have very high levels of Ki67.
Patients enrolled in the study received a history, physical, laboratory assessment, radiological imaging, and diagnostic biopsies. Immunohistochemistry (IHC) of Ki67 (proliferation marker), total ERβ, and pY36-ERβ (phosphorylated ERβ, B7H1 (also known as PDL-1) and BRCA1 (breast cancer 1, early onset) were conducted using core needle biopsy tissue samples prior to treatment. Patients were given oral S-equol 50 mg, twice daily for approximately two weeks (10-21 days) prior to the scheduled oncologic surgeries or start of primary systemic therapy. Tumor samples were obtained from the surgery or the two-week repeat core needle biopsy. Post-treatment IHC evaluation of Ki67, total ERβ, phosphorylated ERβ (pY36) and BRCA1 were obtained. Ki67 reduction is a validated surrogate marker of both short and long term hormonal therapy efficacy in trials of human breast cancer and was compared pre- and post-treatment with S-equol. […] A c-DNA microarray platform was also used to discover downstream transcriptional targets of ERβ resulting from activation by S-equol.
Women eligible for the study had newly diagnosed, previously untreated, triple negative breast cancer, with an intact primary breast tumor of any size. All stages of the disease were eligible. They took S-equol during the time they underwent standard preoperative evaluation or pre-therapeutic work-up for advanced disease, such as staging procedures or central line placement. If primary surgery was performed, tissue leftover after standard diagnostic evaluation was used for the two-week biomarker assessment. […] See, FIG. 10.
A standard procedure for acquiring core biopsy with a Bard 14-gauge needle was utilized for determining TNBC prior to enrollment. Whenever possible, the tumor tissues used for IHC analyses were acquired at the same time as the diagnostic core biopsy. The tissue samples were sent for staining of total and pY36 ERβ and Ki67, and analyzed. Testing for ERα, PR, and HER-2 was performed using validated methods. TNBC tumors were defined as less than 5% nuclear staining of carcinoma cells for ERα and PR and either 0, 1, or 2+ staining for HER-2 by IHC. Whole-Genome DASL HT platform from Illumina, which is designed for gene expression profiling with extremely low input of RNA (50 pg), was used to interrogate paired FFPE tissue obtained before and after exposure to S-equol.
The primary analysis estimated the geometric mean change of the Ki67 expression from baseline to two weeks. This was performed using a one-sample t-test of the pre/post differences in the log-transformed data, and summarized by the 95% confidence interval. […]

In the next experiment the test system is B16. Put plainly: B16 tumors in mice with subcutaneous S-equol (Example 6, present tense). The format is in vivo, mouse. The following applies: B16 cells, daily s.c. S-equol 20 or 60 mg/kg per day vs PBS. How it is done:
Further work in a preclinical animal model supports the notion of using S-equol to treat melanoma. In immunocompromised mouse experiments, using B16, a murine tumor cell line know to be useful to study human melanoma metastasis and solid tumor formation, growth of tumors is suppressed with S-equol treatment compared to control. 0.5×10^6 B16 cells are injected into normal BL mice. When the tumor masses reach 50 to 80 mm^3 (about one week after the inoculation), the mice are given daily subcutaneous injections of S-equol (20 or 60 mg/kg per day) or PBS as a vehicle control. Tumor development is followed by caliper measurements along two orthogonal axes: length (L) and width (W) and volume (V) is estimated by the formula V=[L×(W^2)]/2. Tumors harvested from mice are fixed in 10% neutral-buffered formalin, dehydrated, embedded in paraffin, and sectioned at 3 μm thickness. Representative tumor sections from vehicle control and S-equol-treated mice are tested for Ki-67 expression to assess cell proliferation, and for ERβ pY36. Statistical significance in the experiments is assessed by two-tailed Student's t test. In all assays, p<0.05 is considered statistically significant.

A further experiment relates to cytochrome oxidase (COX). The conditions noted are these: brains from ovariectomized mice; cited from earlier work.
[2] abbreviates: of 17 evaluable patients, S-equol 50 mg twice daily 10-21 days.

Turning to `Oc1ccc([C@H]2COc3cc(O)ccc3C2)cc1` [S-equol], the xenograft tumor growth result in experiment [1] (S-equol vs vehicle (FIG. 16B, FIG. 20)) is reported as “inhibited; also recorded: reduces the growth of TNBC cells”. The “growth of tumors suppressed compared to control” value in experiment [1] (daily s.c. S-equol 20 or 60 mg/kg per day vs PBS) worked out at 60%. The “change in Ki67 pre- vs post-treatment (in words)” value in the experiment with TNBC (TNBC patients, oral S-equol 50 mg twice daily for 10-21 days) is reported as “measurable decrease in Ki67; also recorded: measurable decline in Ki67”. In the experiment on TNBC (setting [2]), the “patients with 0-20% reduction in Ki-67” value is recorded as 7 patients, the “patients with greater than 20% reduction in Ki-67” value was “one”, the “patients with greater than 30% reduction in Ki-67” value is given as 4 patients and the “patients with no reduction in Ki-67” value was 5 patients. Also, the “growth of tumors compared to control” value with B16 is “suppressed”. In addition, the “cytochrome oxidase (COX) activity and COX1 protein levels” value in the experiment with cytochrome oxidase (COX) is on record as “increase”.

The record behind these values is patent US12070444B2, “Modulation of molecular markers using S-equol” (Board of Regents, The University of Texas System, priority 2020, dated 2024).
